Experimental data from US20210206763A1, “Anti-Proliferative Agents” (FEMTOGENIX LIMITED, priority 2015, published 2021).

Experiments:
[1] = tested on: NFκB transcription factor binding sequence (duplex oligonucleotide); test: DNA adduct formation by HPLC; details: 4:1 molar ratio ligand:oligonucleotide, room temperature
Protocol: Interaction of C8-linked PDD monomers with duplex transcription factor consensus sequence was studied with an HPLC assay utilizing a X-bridge MS C18 2.5 μM OST column (2.3×50 mm) and a gradient of 40% acetonitrile/water and 100 mM TEAB ([…])/water as mobile phase with a flow rate of 0.5 mL/min and UV detection at 254 nm. A 4:1 molar ratio of ligand:oligonucleotide was used, with each single-stranded oligonucleotide dissolved in 1 M ammonium acetate to form stock solutions of 1 mM. The oligonucleotides were initially annealed by heating their 1 mM solutions to 70° C. for 10 mins followed by gradual cooling over 8 hours and storage overnight at −20° C. Working solutions of oligonucleotides of 25 μM were then prepared by diluting the annealed stock solutions with 100 mM ammonium acetate. The ligands were dissolved in DMSO to form a stock solution of 10 mM which was stored at −20° C. for no longer than four months. Working solutions of the drug of 100 μM were prepared by diluting the stock solution with 100 mM ammonium acetate. The working solutions of the ligands were added to the working solution the oligonucleotides at RT, and the mixture incubated for different time intervals at room temperature.

[2] = tested on: MDA MB 231 (Triple negative breast cancer cell line); test: MTT cytotoxicity assay of C8-linked PDD monomers; assay type: cell-based; details: Homo sapiens, 72 hours exposure
Protocol: (§1) MDA MB231 (triple negative human breast cancer) was obtained from the American Type Culture Collection. The cell-line was maintained in monolayer culture in 75 cm^2 flasks (TPP, Switzerland) under a humidified 5% CO2 atmosphere at 37° C. The MDA MB231 cell line was maintained in high glucose DMEM (4.5 g/l; Invitrogen), foetal bovine serum (10%, Biosera UK), non-essential amino acids (ix; Invitrogen), L-glutamine (2 mM; Invitrogen) and Penicillin-Streptomycin (1% v/v, Invitrogen). The HeLa cell line was maintained in Dulbecco's Modified Eagles Media (DMEM; Invitrogen) supplemented with foetal bovine serum (10% v/v; Invitrogen), L-glutamine (2 mM; Invitrogen), non-essential amino acids (lx; Invitrogen) and Penicillin-Streptomycin (1% v/v, Invitrogen). For passaging, cells were washed with PBS (GIBCO 14040, Invitrogen, UK), incubated with trypsine (GIBCO 25300, Invitrogen, UK), and re-seeded into fresh medium. For seeding, cells were counted using a Neubauer haemocytometer (Assistant, Germany) by microscopy (Nikon, USA) on a non-adherent suspension of cells that were washed in PBS, trypsinised, centrifuged at 8° C. at 8000 rpm for 5 min and re-suspended in fresh medium.
(§2) The cells were grown in normal cell culture conditions at 37° C. under a 5% CO2 humidified atmosphere using appropriate medium. The cell count was adjusted to 10^5 cells/ml and 5,000-20,000 cells were added per well depending on the cell line. The cells were incubated for 24 hours and 1 μl of the appropriate inhibitor concentrations were added to the wells in triplicates. After 72 h of continuous exposure to each compound, the cytotoxicity was determined using the 3-(4,5-Dimethylthiazol-2-yl)-2,5-diphenyltetrazolium bromide (MTT) (Lancaster Synthesis Ltd, UK) colorimetric assay.^[34 Absorbance was quantified by spectrophotometry at λ=570 nm (Envision Plate Reader, PerkinElmer, USA). IC50 values were calculated by a dose-response analysis using the GraphPad Prism® software.

[3] = tested on: HeLa (Cervical cancer cell line); test: MTT cytotoxicity assay of C8-linked PDD monomers; assay type: cell-based; details: Homo sapiens, 72 hours exposure
Protocol: as §1, §2

[4] = tested on: NFκB Transcription Factor duplex DNA sequence; test: FRET DNA melting assay with transcription factor duplex DNA; assay type: binding; details: 1 μM ligand concentration; 24 hours incubation
Protocol: (§3) Oligonucleotide sequences used for the FRET assays were purchased from Eurogentec, Southampton, UK: TAMRA (6-carboxytetramethylrhodamine) and FAM (6-carboxyfluorescein) are acceptor and donor fluorophores, respectively. From 20 μM stock solutions, 400 nM solutions in FRET buffer (optimized as 50 mM potassium, 50 mM cacodylate, pH 7.4) were prepared prior to use. The oligonucleotides were annealed through heating the samples to 90° C. for 10 mins followed by cooling to room temperature and storing at this temperature for 5 h. Dilutions from the initial 5 mM DMSO stock solution were performed using FRET buffer. Annealed DNA (50 μL) and sample solution (50 μL) were added to each well of a 96-well plate (MJ Research, Waltham, Mass.), and processed in a DNA Engine Opticon (MJ Research). Fluorescence readings were taken at intervals of 0.5° C. over the range 30-100° C., with a constant temperature maintained for 30 seconds prior to each reading. Incident radiation of 450-495 nm was used, with detection at 515-545 nm. The raw data were imported into the program Origin (Version 7.0, OringinLab Corp.), and the graphs were smoothed using a 10-point running average, and then normalized. Determination of melting temperatures was based on values at the maxima of the first derivative of the smoothed melting curves using a script. The difference between the melting temperature of each sample and that of the blank (ΔTm) was used for comparative purposes.

[5] = tested on: AP-1 Transcription Factor duplex DNA sequence; test: as above; assay type: binding; details: 1 μM ligand concentration; 24 hours incubation
Protocol: as §3

[6] = tested on: fluorescently labelled DNA duplex 5′-AAAAAAAGAAATTTAAA-3′; test: FRET DNA melting of fluorescently labelled duplex; assay type: binding; details: fragments of 41, FIG. 12B
Excerpt: FRET DNA melting studies were undertaken on a fluorescently labelled duplex DNA sequence reacted with 41 and fragmented forms of the molecule (i.e, using intermediates 106, […] and 148). The sequence (FIG. 10) was designed to provide additional evidence that 41 can effectively stabilise a particular DNA sequence derived through the Footprinting studies (i.e., XGXWWWW where X represents any base, G represents guanine and W indicates adenine or thymine). […] The labels were fluorescein (F) and dabcyl (Q).
Oligonucleotides were obtained from ATDbio (Southampton, UK) in lyophilised form. They were labelled with a fluorophore molecule (F=fluorescein) at the 5′-end and a quencher molecule (Q=dabcyl) at the 3′-end of the complementary strand. Each oligonucleotide was dissolved in distilled H2O to form stock solutions of 100 μM. Working solutions of 5 μM were prepared by diluting the stock solution with distilled H2O.
The following buffers were used: 250 mM phosphate buffer pH 7.4 (consisting of sodium dihydrogen phosphate and sodium phosphate diluted in distilled H2O) and 5 M sodium chloride buffer. All buffers and distilled H2O were filtered through a 0.2 VIM filter prior to use.
For the FRET experiments stock solutions of 41, 106, 107 and 148 were prepared by dissolving the compounds in DMSO to give a concentration of 10 mM. From this stock solution, working solutions of the desired concentration were prepared by diluting the stock solution with distilled H2O.
The reaction mixture was comprised of 4 μL of 250 mM phosphate buffer (final concentration of 50 mM), 4 μL flourophor and 4 μL quencher molecule of the appropriate oligonucleotide for a final concentration of 0.2 μM, 4 μL 5 M sodium chloride (final concentration of 1 M NaCl), and 4 μL of distilled H2O. […] This mixture was analysed without prior annealing.
Fluorescence melting profiles were measured using a Roche LightCycler using a total reaction volume of 20 μL. […] Annealing steps and melting steps were all recorded and changes in fluorescence were measured at 520 nm. […]

[7] = in vivo; cited from earlier work

SMILES	DNA adduct formation (HPLC chromatogram) [1]	IC50 [2] [nM]	IC50 [3] [nM]	ΔTm NFκB (1st transition) [4] [°C]	ΔTm NFκB (2ND transition) [4] [°C]	ΔTm AP-1 (1st transition) [5] [°C]	ΔTm AP-1 (2ND transition) [5] [°C]	DNA stabilisation (FRET melting) [6]	adverse effects in Phase I clinical evaluation [7]
COC(=O)c1cc2cc(NC(=O)c3cc(NC(=O)CCCOc4cc5c(cc4OC)C(=O)N4CCCC[C@H]4C=N5)cn3C)ccc2s1 [Compound 13, Methyl (S)-5-(4-(4-((2-methoxy-12-oxo-6a,7,8,9,10,12-hexa-hydrobenzo[e]pyrido[1,2-a][1,4]diazepin-3-yl)oxy)butanamido)-1-methyl-1H-pyrrole-2-carboxamido)benzo[b]thiophene-2-carboxylate]	DNA adduct formation	64 ± 9.6	0.6 ± 0.4	12	23	11	19	–	–
COc1cc2c(cc1O)N=C[C@@H]1CCCCN1C2=O [Compound 106, (S)-3-Hydroxy-2-methoxy-7,8,9,10-tetrahydrobenzo[e]pyrido[1,2-a][1,4]diazepin-12(6aH)-one]	–	–	–	–	–	–	–	little DNA stabilisation	–
COC(=O)c1cc(-c2ccc(NC(=O)c3cc(NC(=O)CCCOc4cc5c(cc4OC)C(=O)N4CCCC[C@H]4C=N5)cn3C)cc2)cn1C [Compound 24, Methyl (S)-4-(4-(4-(4-((2-methoxy-12-oxo-6a,7,8,9,10,12-hexahydrobenzo[e]pyrido[1,2-a][1,4]diazepin-3-yl)oxy)butanamido)-1-methyl-1H-pyrrole-2-carboxamido)phenyl)-1-methyl-1H-pyrrole-2-carboxylate]	DNA adduct formation	0.8 ± 0.66	1 ± 0.12	10	14	9	15	–	–
COC(=O)c1cc(-c2ccc(NC(=O)c3nc(NC(=O)CCCOc4cc5c(cc4OC)C(=O)N4CCCC[C@H]4C=N5)cn3C)cc2)cn1C [Compound 20, Methyl (S)-4-(4-(4-(4-((2-methoxy-12-oxo-6a,7,8,9,10,12-hexahydrobenzo[e]pyrido[1,2-a][1,4]diazepin-3-yl)oxy)butanamido)-1-methyl-1H-imidazole-2-carboxamido)phenyl)-1-methyl-1H-pyrrole-2-carboxylate]	DNA adduct formation	0.3 ± 0.22	0.14 ± 0.09	9	12	8	13	–	–
C=C1C[C@H]2C=Nc3cc(OCCCOc4cc5c(cc4OC)C(=O)N4CC(=C)C[C@H]4C=N5)c(OC)cc3C(=O)N2C1 [SJG-136]	–	–	–	–	–	–	–	–	lower-limb edema and fatigue
COC(=O)c1cc2cc(NC(=O)c3nc(NC(=O)CCCOc4cc5c(cc4OC)C(=O)N4CCCC[C@H]4C=N5)cn3C)ccc2s1 [Compound 17, Methyl (S)-5-(4-(4-((2-methoxy-12-oxo-6a,7,8,9,10,12-hexa-hydrobenzo[e]pyrido[1,2-a][1,4]diazepin-3-yl)oxy)butanamido)-1-methyl-1H-imidazole-2-carboxamido)benzo[b]thiophene-2-carboxylate]	DNA adduct formation	21 ± 1.8	1.2 ± 0.8	11	26	13	18	–	–
Cn1cc(N)cc1C(=O)Nc1ccc(-c2cc(C(=O)Nc3ccc(N)cc3)n(C)c2)cc1 [Compound 148, 4-Amino-N-(4-(5-((4-aminophenyl)carbamoyl)-1-methyl-1H-pyrrol-3-yl)phenyl)-1-methyl-1H-pyrrole-2-carboxamide]	–	–	–	–	–	–	–	little DNA stabilisation	–
COc1cc2c(cc1OCCCC(=O)O)N=C[C@@H]1CCCCN1C2=O [Compound 107, (S)-4-((2-Methoxy-12-oxo-6a,7,8,9,10,12-hexahydrobenzo[e]pyrido[1,2-a][1,4]diazepin-3-yl)oxy)butanoic acid]	–	–	–	–	–	–	–	little DNA stabilisation	–
